{
  "source": "paper PMC3485228",
  "about": "“Structure-Based Engineering Increased the Catalytic Turnover Rate of a Novel Phenazine Prenyltransferase” (PLoS ONE, 2012)",
  "target": "T1, EpzP (Streptomyces virginiae, UniProt E5KWG9)",
  "T1 construct": "pET28a His6-tag, E. coli Rosetta2; tag thrombin-cleaved for structures (EpzPm: lysines reductively methylated, 18 of 19)",
  "T1 sequence (E5KWG9 1-302)": "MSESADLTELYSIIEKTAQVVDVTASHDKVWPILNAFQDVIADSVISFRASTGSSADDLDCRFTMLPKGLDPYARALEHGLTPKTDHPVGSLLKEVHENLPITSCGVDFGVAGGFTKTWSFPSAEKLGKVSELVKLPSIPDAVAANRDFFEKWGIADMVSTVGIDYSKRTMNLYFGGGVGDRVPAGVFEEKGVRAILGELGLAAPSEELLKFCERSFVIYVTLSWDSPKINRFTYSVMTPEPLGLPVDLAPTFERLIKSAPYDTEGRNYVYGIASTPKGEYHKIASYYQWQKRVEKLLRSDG",
  "assay": "X-ray crystal structure ([…] A)",
  "assay_type": "binding",
  "details": "lysine-methylated EpzP; crystal soaked with 5 mM DMSPP, hydrolysed to SPP; diphosphate site; acidic pH",
  "data": [
    {"compound": "O=P(O)(O)OP(=O)(O)S", "note": "(stereo not shown) [S-thiolodiphosphate]", "values": [
      {"measurement": "X-ray crystal structure (1.67 A)", "result": "revealed the presence of a S-thiolodiphosphate (SPP) moiety in the diphosphate binding site"}
    ]}
  ]
}
